Drawing on patent publication US6723343B2, “Pharmaceutical tramadol salts” (Gruenenthal GmbH, priority 1999, dated 2004), this text covers solubility in water for 1 molecule.

For this data set the following is noted: deionized water, 25° C., stirred for 20 hours, HPLC against tramadol hydrochloride as standard.

Procedure: The solubility of the salts of tramadol and a sugar substitute was determined as follows:
The requisite amount of the salt of tramadol and the appropriate sugar substitute can optionally be determined by preliminary experiments.
After the undissolved salt of tramadol and the appropriate sugar substitute had been allowed to settle out, the clear supernatant was pipetted off and centrifuged for 5 minutes at a speed of at least 3000 rpm. Part of the resulting clear supernatant is transferred to an HPLC sample vial and the concentration of the salt of tramadol and the appropriate sugar substitute is determined against tramadol hydrochloride as standard.

In turn, `COc1cccc(C2(O)CCCCC2CN(C)C)c1.O=C1NS(=O)(=O)c2ccccc21` (stereo not shown) [tramadol saccharinate] gave a solubility in water of 22.5 mg/mL.
